In brackets after ≈: the same amount, converted by molar mass. Like-named read-outs stand apart in the source and are kept apart here. Non-standard residues stand in square brackets, D forms with d. Residues, ends and D or L forms follow the SMILES beside them. Nle = CCCC[C@H](N)C(=O)O
Legend:
A. baumannii ATCC 19606 = type: cell-based
Protocol: (§1) All Gram-negative and Gram-positive strains were obtained from the American Type Culture Collection (Rockville, MD, USA). MICs were determined as described previously. 50 μL of bacterial culture properly diluted in Mueller–Hinton (MH) broth were added to each well of a 96-well plate containing 50 μL of MH with serially two-fold diluted peptide from 100 μM, to reach a final cell density of 1 × 10^6 CFU/mL. Each MIC value indicates the lowest concentration of compound that causes a total inhibition of bacterial growth after 16–18 h of incubation at 37 °C.

B. megaterium Bm11 = type: cell-based
Protocol: as §1

E. coli ATCC 25922 = type: cell-based
Protocol: as §1

[1] = test system: K. pneumoniae ATCC BAA-1705; type: cell-based
Protocol: as §1

P. aeruginosa ATCC 27853 = type: cell-based
Protocol: as §1

S. aureus ATCC 25923 = type: cell-based
Protocol: as §1

[2] = test system: S. epidermidis ATCC 12228; type: cell-based
Protocol: as §1

sheep red blood cells = test: Hemolytic assay; type: cell-based
Protocol: Hemolysis was evaluated on sheep red blood cells (OXOID, SR0051D, Milan, Italy). Aliquots of cells in 0.9% (w/v) NaCl were incubated with the peptide [Nle^1, DLeu^9, DLys^10]TL at different concentrations (ranging from 3.12 to 100 μM) for 40 min at 37 °C with gentle shaking. Controls were erythrocytes treated with vehicle while total lysis controls were obtained by suspending cell in distilled water. Then, the samples were centrifuged for 5 min at 900× g, and the presence of hemoglobin in the supernatant was measured at an absorbance of 415 nm using a microplate reader (Infinite M200; Tecan, Salzburg, Austria) and compared to the complete lysis of erythrocytes (100%). The data reported are the mean ± the standard error of the mean (S.E.M.) of three independent experiments.

HaCaT cells = test: Cytotoxicity on human keratinocytes, MTT assay; type: cell-based; conditions: 3.12–12.5 μM, 2 h and 24 h
Protocol: The human immortalized keratinocytes HaCaT cells were purchased from AddexBio (San Diego, CA, USA) and cultured in Dulbecco’s modified Eagle’s medium supplemented with 4 mM glutamine (DMEMg), 10% heat-inactivated fetal bovine serum (FBS), and 0.1 mg/mL of penicillin and streptomycin, at 37 °C and 5% CO2, in 25 cm^2 or 75 cm^2 flasks. The in vitro MTT [3-(4,5-dimethylthiazol-2-yl)-2,5-diphenyltetrazolium bromide] assay, based on the reduction of the yellow tetrazolium salt MTT to the purple formazan by viable cells with active metabolism, was used to evaluate the peptide cytotoxicity on HaCaT cells, as previously described in [27]. Specifically, 4 × 10^4 HaCaT cells, suspended in DMEMg supplemented with 2% FBS were plated in a 96-well microtiter plate. After overnight incubation, at 37 °C in a 5% CO2 atmosphere, HaCaT cells were treated for 2 h or 24 h with fresh serum free medium containing the peptide [Nle^1, DLeu^9, DLys^10]TL in a concentration range from 3.12 to 100 μM. […] Formazan crystals were dissolved using acidified isopropanol, and the absorbance of each well was measured at 570 nm using a microplate reader (Infinite M200; Tecan, Salzburg, Austria). The number of viable cells was proportional to the intensity of purple color and was expressed as percentage compared to that of untreated control cells (100%). […]

[3] = Peptide aggregation in aqueous solution, Nile Red; type: physicochemical; conditions: Nile Red 500 nM, 1–200 μM peptide, 1 h equilibration at room temperature, fluorescence, triplicate, Boltzmann fit
Protocol: Nile Red (NR) was used as fluorescent probe to monitor the aggregation in solution [51]. NR is not very soluble in water and has a large preference to move into hydrophobic environment as aggregates, producing a blue shift and hyperchromic effect. The peptide stock (400 μM) was prepared in 1,1,1,3,3,3-hexafluoro-2-propanol (HFIP) as solvent and different aliquots were taken to prepare each peptide solution at different concentrations (1, 5, 10, 15, 20, 30, 50, 100, and 200 μM). Then, HFIP was removed under nitrogen stream, 1 mL of water was added, and the solution was sonicated for 15 min and freeze-dried. Finally, the peptide powders were dissolved with a solution of 500 nM of NR in water and equilibrated for 1 h at room temperature. Emission spectra for each solution were measured between 570 and 700 nm by a Cary Eclipse Varian spectrometer (San Diego, CA, USA), setting a slit width of 5 nm and an excitation wavelength of 550 nm and a 10 nm slit width. The measurements were performed in triplicate. The data were analyzed by plotting the maximum emission fluorescence corresponding wavelength (y) as a function of peptide concentration (x) and fitting with the sigmoidal Boltzmann equation as described previously.

[4] = Circular dichroism in vesicles; type: physicochemical; conditions: vesicles of DOPG/CL and DOPG/DOPE/CL, peptide 3 μM, phosphate buffer 5 mM pH 7.4, 25 °C; negative band at ~220 nm
Protocol: All CD spectra were recorded from 260 to 190 nm (a bandwidth of 3 nm, a time constant of 16 s, and a scan rate of 10 nm/min) on a Jasco J-175 spectropolarimeter using a 1 cm quartz cell at 25 °C. Small unilamellar vesicles (SUVs) made of DOPG/CL (58/42 ratio in moles) and DOPG/DOPE/CL (63/23/12 ratio in moles) were used in the conformational study. SUVs were prepared as reported previously. Firstly, lipids dissolved in chloroform and an equal volume of peptide solution dissolved in 2,2,2-trifluoroethanol (TFE) containing the peptide [Nle^1, DLeu^9, DLys^10]TL at a concentration of 3 μM were mixed, vortexed, and lyophilized overnight. Then, the dry samples were hydrated with phosphate buffer 5 mM, pH 7.4, for 1 h and sonicated for 30 min to obtain SUVs. Each spectrum was corrected for the blank and converted into mean molar ellipticity.

[5] = test system: J774A.1 murine macrophage cells; conditions: MTT, 3 independent experiments
Protocol: The spectrophotometric absorbance was then measured using a microtiter enzyme-linked immunosorbent assay reader (Multiskan™ GO Microplate Spectrophotometer; Thermo Scientific™, Milan, Italy) at 540 nm. The percentage of cell viability was assessed by the following formula: (OD of treated cells/OD of control) × 100.

Q: Which results are given for `CCCC[C@H](N)C(=O)N[C@@H](Cc1ccccc1)C(=O)N[C@H](C(=O)N1CCC[C@H]1C(=O)N[C@@H](Cc1c[nH]c2ccccc12)C(=O)N[C@@H](Cc1ccccc1)C(=O)N[C@@H](CO)C(=O)N[C@@H](CCCCN)C(=O)N[C@@H](Cc1ccccc1)C(=O)N[C@H](CC(C)C)C(=O)N[C@H](CCCCN)C(=O)N[C@@H](CCCNC(=N)N)C(=O)N[C@H](C(=O)N[C@@H](CC(C)C)C(N)=O)[C@@H](C)CC)C(C)C` [[Nle^1, DLeu^9, DLys^10]TL] (H-[Nle]FVPWFSKF[dL][dK]RIL-NH2)?
A: MIC (A. baumannii ATCC 19606): 3.12 µM (≈ 5.6 µg/mL); MIC (B. megaterium Bm11): 0.78 µM (≈ 1.4 µg/mL); MIC (E. coli ATCC 25922): 6.25 µM (≈ 11.2 µg/mL); MIC [1]: 12.5 µM (≈ 22.4 µg/mL); MIC (P. aeruginosa ATCC 27853): 12.5 µM (≈ 22.4 µg/mL); MIC (S. aureus ATCC 25923): 3.12 µM (≈ 5.6 µg/mL); MIC [2]: 3.12 µM (≈ 5.6 µg/mL); hemolysis (sheep red blood cells; 50 µM): ~ 40%; hemolysis (sheep red blood cells; 100 µM): ~ 40%; effect on human keratinocytes viability (HaCaT cells): only a slight reduction; critical aggregation concentration (CAC) [3]: 38.9 µM; molecular conformation (CD) [4]: β-type conformation; cytotoxic effect on murine macrophage cell line ([5]; J774A.1, 1–3 μM): safe profile; cytotoxic effect on murine macrophage cell line ([5]; J774A.1, 10 and 30 μM): significant reduction of cell viability

Reference: publication PMC9598925, “Synthetic Amphipathic β-Sheet Temporin-Derived Peptide with Dual Antibacterial and Anti-Inflammatory Activities” (Antibiotics, 2022)
